Assay results reported in PubChem BioAssay AID330 (DTP/NCI, 2004).
Values joined by “and” are separate entries in the source; they are usually repeats but may differ in a detail not shown here. Equal values may be shown once. Inconclusive results and toxic doses are left out. How the source made its calls: active means survival T/C of 150% or more; inactive means T/C below 125% in these data.

System: P388 leukemia ip, CD2F1 mice, survival T/C
Test: NCI In Vivo Anticancer Drug Screen. Data for tumor model P388 Leukemia (intraperitoneal) in CD2F1 (CDF1) mice
Conditions: endpoint: median survival time, higher = longer survival
Outline: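 Mice carrying the transplanted tumor received test compound or vehicle. Survival was recorded in each group, and the value is the treated-group measurement divided by that of the vehicle-treated control group.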

[1] = dose: 100.0 mg/kg/injection, schedule: Q04DX003 (ip), vehicle: saline
[2] = dose: 12.5 mg/kg/injection, schedule: Q01DX009 (ip), vehicle: Klucel (hydroxypropylcellulose) (HPC)
[3] = dose: 25.0 mg/kg/injection, schedule: Q01DX009 (ip), vehicle: Klucel (hydroxypropylcellulose) (HPC)
[4] = dose: 50.0 mg/kg/injection, schedule: Q01DX009 (ip), vehicle: Klucel (hydroxypropylcellulose) (HPC)
[5] = dose: 50.0 mg/kg/injection, schedule: Q01DX005 (ip), vehicle: Klucel (hydroxypropylcellulose) (HPC)
[6] = dose: 100.0 mg/kg/injection, schedule: Q01DX005 (ip), vehicle: Klucel (hydroxypropylcellulose) (HPC)
[7] = dose: 200.0 mg/kg/injection, schedule: Q01DX005 (ip), vehicle: Klucel (hydroxypropylcellulose) (HPC)
[8] = dose: 100.0 mg/kg/injection, schedule: Q01DX009 (ip), vehicle: saline

Measured: T/C

NC(=S)C(F)(F)F
inactive: dose: 75.0 mg/kg/injection, schedule: Q01DX001 (ip), vehicle: saline with Tween-80 103 % of control | dose: 150.0 mg/kg/injection, schedule: Q01DX001 (ip), vehicle: saline with Tween-80 113 % of control | dose: 300.0 mg/kg/injection, schedule: Q01DX001 (ip), vehicle: saline with Tween-80 103 % of control

O=C(Nc1cccc(NC(=O)Nc2cccc(C3=NCCN3)c2)c1)Nc1cccc(C2=NCCN2)c1
inactive: dose: 90.0 mg/kg/injection, schedule: Q01DX010 (ip), vehicle: saline 100 % of control

CCCCCCCCCCCCCCCC(=O)NCC(=O)NC1C(CO)OC(Nc2ncnc3nc[nH]c23)C(O)C1O (centres undefined)
inactive: dose: 0.13 mg/kg/injection, schedule: Q01DX009 (ip), vehicle: water 110 % of control | dose: 0.25 mg/kg/injection, schedule: Q01DX009 (ip), vehicle: water 107 % of control | dose: 1.0 mg/kg/injection, schedule: Q01DX009 (ip), vehicle: water 96 % of control | dose: 2.0 mg/kg/injection, schedule: Q01DX009 (ip), vehicle: water 98 % of control

COC(=O)CC(OC)OC
inactive: dose: 100.0 mg/kg/injection, schedule: Q01DX009 (ip), vehicle: saline with Tween-80 100 % of control | [1] 91 % of control | dose: 200.0 mg/kg/injection, schedule: Q01DX009 (ip), vehicle: saline with Tween-80 113 % of control | dose: 200.0 mg/kg/injection, schedule: Q04DX003 (ip), vehicle: saline 91 % of control | dose: 400.0 mg/kg/injection, schedule: Q01DX009 (ip), vehicle: saline with Tween-80 113 % of control | dose: 400.0 mg/kg/injection, schedule: Q04DX003 (ip), vehicle: saline 95 % of control

Cc1nn2cc(-c3ccc4ccccc4c3)nc2[nH]c1=O
inactive: dose: 100.0 mg/kg/injection, schedule: Q01DX001 (ip), vehicle: Klucel (hydroxypropylcellulose) (HPC) 100 % of control | dose: 200.0 mg/kg/injection, schedule: Q01DX001 (ip), vehicle: Klucel (hydroxypropylcellulose) (HPC) 99 % of control | dose: 400.0 mg/kg/injection, schedule: Q01DX001 (ip), vehicle: Klucel (hydroxypropylcellulose) (HPC) 100 % of control

Clc1c2ccccc2[se][n+]1-c1ccccc1
inactive: [2] 109 % of control | [3] 111 % of control | [4] 115 % of control

O=C1C2CCCN2C(=S)N1c1ccc([N+](=O)[O-])cc1 (centres undefined)
inactive: [5] 100 % of control | [6] 100 % of control | [7] 99 % of control

O=C(Nc1nc2ccc(Cl)cc2[nH]1)c1ccccc1O
inactive: dose: 50.0 mg/kg/injection, schedule: Q01DX005 (ip), vehicle: saline with Tween-80 94 % of control | dose: 100.0 mg/kg/injection, schedule: Q01DX005 (ip), vehicle: saline with Tween-80 98 % of control | dose: 200.0 mg/kg/injection, schedule: Q01DX005 (ip), vehicle: saline with Tween-80 101 % of control

CNC(=S)/N=c1/sc([N+](=O)[O-])c(C)n1C
inactive: dose: 1.87 mg/kg/injection, schedule: Q01DX005 (ip), vehicle: saline with Tween-80 94 % of control | dose: 3.75 mg/kg/injection, schedule: Q01DX005 (ip), vehicle: saline with Tween-80 92 % of control | dose: 7.5 mg/kg/injection, schedule: Q01DX005 (ip), vehicle: saline with Tween-80 99 % of control and 97 % of control | dose: 15.0 mg/kg/injection, schedule: Q01DX005 (ip), vehicle: saline with Tween-80 95 % of control

O=[N+]([O-])c1c(N2CCN(CCO)CC2)nc2ccccn12
inactive: [2] 99 % of control | [3] 91 % of control | [4] 105 % of control

CCOC(=O)C1C[S][Sn]2([NH]1)[NH]C(C(=O)OCC)C[S]2 (centres undefined)
inactive: [5] 99 % of control | [6] 106 % of control | [7] 101 % of control

O=C(O)CN(CCN(CC(=O)O)CC(=O)O)CC(=O)O
inactive: [1] 100 % of control

[N-]=[N+]=Nc1ccnc2cc(Cl)ccc12
inactive: dose: 60.0 mg/kg/injection, schedule: Q01DX005 (ip), vehicle: saline with Tween-80 108 % of control | dose: 120.0 mg/kg/injection, schedule: Q01DX005 (ip), vehicle: saline with Tween-80 100 % of control | dose: 240.0 mg/kg/injection, schedule: Q01DX005 (ip), vehicle: saline with Tween-80 104 % of control

COC(=O)C(N)CSCSCc1ccccc1 (centres undefined)
inactive: dose: 3.13 mg/kg/injection, schedule: Q01DX009 (ip), vehicle: water 90 % of control | dose: 6.25 mg/kg/injection, schedule: Q01DX009 (ip), vehicle: water 90 % of control | dose: 12.5 mg/kg/injection, schedule: Q01DX009 (ip), vehicle: water 93 % of control | dose: 25.0 mg/kg/injection, schedule: Q01DX009 (ip), vehicle: saline 100 % of control | dose: 25.0 mg/kg/injection, schedule: Q01DX009 (ip), vehicle: water 90 % of control | dose: 50.0 mg/kg/injection, schedule: Q01DX009 (ip), vehicle: saline 98 % of control | dose: 50.0 mg/kg/injection, schedule: Q01DX009 (ip), vehicle: water 90 % of control | [8] 101 % of control

COc1cc(C=NC2CCCCC2)cc(OC)c1OC
inactive: dose: 100.0 mg/kg/injection, schedule: Q01DX001 (ip), vehicle: saline 104 % of control | dose: 200.0 mg/kg/injection, schedule: Q01DX001 (ip), vehicle: saline 101 % of control | dose: 400.0 mg/kg/injection, schedule: Q01DX001 (ip), vehicle: saline 99 % of control

CC1=NN=C(C)C1=Cc1ccccc1[N+](=O)[O-]
inactive: [4] 99 % of control | dose: 100.0 mg/kg/injection, schedule: Q01DX009 (ip), vehicle: Klucel (hydroxypropylcellulose) (HPC) 95 % of control | dose: 200.0 mg/kg/injection, schedule: Q01DX009 (ip), vehicle: Klucel (hydroxypropylcellulose) (HPC) 101 % of control

CCC1(CC)c2c(ccc(OC)c2OC)C=C2c3cc4c(cc3CCN21)OCO4
inactive: dose: 0.63 mg/kg/injection, schedule: Q01DX009 (ip), vehicle: distilled water + Tween-80 108 % of control | dose: 0.63 mg/kg/injection, schedule: Q01DX009 (ip), vehicle: water 94 % of control | dose: 1.25 mg/kg/injection, schedule: Q01DX009 (ip), vehicle: distilled water + Tween-80 108 % of control | dose: 1.25 mg/kg/injection, schedule: Q01DX009 (ip), vehicle: water 103 % of control | dose: 2.5 mg/kg/injection, schedule: Q01DX009 (ip), vehicle: distilled water + Tween-80 123 % of control | dose: 2.5 mg/kg/injection, schedule: Q01DX009 (ip), vehicle: water 112 % of control

NC(N)=NC(N)=Nc1c(F)c(F)c(F)c(F)c1F
inactive: dose: 6.25 mg/kg/injection, schedule: Q01DX009 (ip), vehicle: saline with Tween-80 107 % of control | dose: 12.5 mg/kg/injection, schedule: Q01DX009 (ip), vehicle: saline with Tween-80 100 % of control | dose: 25.0 mg/kg/injection, schedule: Q01DX009 (ip), vehicle: saline with Tween-80 101 % of control and 113 % of control | dose: 50.0 mg/kg/injection, schedule: Q01DX009 (ip), vehicle: saline with Tween-80 116 % of control

[NH-]NC(=S)[S-].[NH-]NC(=S)[S-].[Pt+4]
inactive: dose: 12.5 mg/kg/injection, schedule: Q04DX003 (ip), vehicle: Klucel (hydroxypropylcellulose) (HPC) 103 % of control | dose: 25.0 mg/kg/injection, schedule: Q04DX003 (ip), vehicle: Klucel (hydroxypropylcellulose) (HPC) 100 % of control | dose: 50.0 mg/kg/injection, schedule: Q04DX003 (ip), vehicle: Klucel (hydroxypropylcellulose) (HPC) 109 % of control

CC(=O)CC(=O)OCc1ccccc1
inactive: dose: 100.0 mg/kg/injection, schedule: Q04DX003 (ip), vehicle: saline with Tween-80 100 % of control | dose: 200.0 mg/kg/injection, schedule: Q04DX003 (ip), vehicle: saline with Tween-80 100 % of control | dose: 400.0 mg/kg/injection, schedule: Q04DX003 (ip), vehicle: saline with Tween-80 100 % of control

CC(=O)OC(C)(C)c1ccccc1[S+]1OC(C)(C)c2ccccc21 (centres undefined)
inactive: dose: 25.0 mg/kg/injection, schedule: Q01DX001 (ip), vehicle: other 101 % of control | dose: 50.0 mg/kg/injection, schedule: Q01DX001 (ip), vehicle: other 104 % of control | dose: 100.0 mg/kg/injection, schedule: Q01DX001 (ip), vehicle: other 107 % of control

CC(C)(C)CC(C)(C)c1ccc(O)c(O)c1
inactive: dose: 25.0 mg/kg/injection, schedule: Q01DX005 (ip), vehicle: saline 100 % of control | dose: 50.0 mg/kg/injection, schedule: Q01DX005 (ip), vehicle: saline 101 % of control | dose: 100.0 mg/kg/injection, schedule: Q01DX005 (ip), vehicle: saline 106 % of control | [8] 106 % of control and 94 % of control | dose: 200.0 mg/kg/injection, schedule: Q01DX005 (ip), vehicle: saline 110 % of control | dose: 400.0 mg/kg/injection, schedule: Q01DX009 (ip), vehicle: saline 94 % of control
